Entries after “also recorded” stand apart in the source; their conditions may differ.

The test system of data set [1] is C-PVR cells. Nature of the data set: CyQUANT Direct Cell Proliferation Assay of primary PVR cultures. Format: cell-based, human. To be noted: 48 hours. Here is the method:
PVR cells were cultured and seeded into 96 well assay plates at 10,000 cells/well in complete growth media. […] Cell proliferation was assessed at 24, and 48 hour time points by CyQUANT® Direct Cell Proliferation Assay (Thermofisher Scientific) and compared to vehicle controls at 24, and 48 hours post treatment. The data was expressed as percent cell inhibition. […] Cell proliferation and cell death LDH levels were measured and quantified at 48 hours.

Data set [2] deals with C-PVR cells. Put plainly: LDH release cytotoxicity assay (CytoTox 96) of primary PVR cultures. Format: cell-based, human. The following applies: 48 hours. The method, then:
Conditioned media was also collected at 24, and 48 hour time points for each condition, and percentage cell death was quantified by measuring LDH release using the CytoTox 96 Non-Radioactive Cytotoxicity Assay (Promega, Madison, WI, USA). As a positive control, the same number of cells maintained in parallel was lysed by two freeze—thaw cycles; the conditioned media were collected to measure the maximum LDH release. Percentage LDH release was calculated as 100%×(experimental LDH−spontaneous LDH)/(maximal LDH−spontaneous LDH).
PVR cells were cultured using Rho-Kinase inhibitors ripasudil, netarsudil, fasudil, Y-27632 at different concentrations (0.1 μM, 10 μM) and control with no drug. Cell proliferation and cell death LDH levels were measured and quantified at 48 hours.
(In general: Release of lactate dehydrogenase indicates damage to the cell membrane.)

Data set [3] concerns C-PVR cells. Nature of the data set: Cell migration of PVR cells quantified with phase images. The data set is classed as cell-based, human. To be noted: 1 μM. Here is the method: PVR cells cultured using Rho-Kinase inhibitors ripasudil (1 μM), netarsudil (1 μM), fasudil (1 μM), Y-27632 (1 μM) and control with no drug. Cell migration was measured and quantified with phase images at 0, 3, 6, and 12 hours.

Data set [4] relates to PVR explants. Nature of the data set: Ex vivo model of PVR: outgrowth from PVR membrane explants embedded in Matrigel. The data set is classed as cell-based, human. To be noted: for explant outgrowths, inhibition of proliferation and migration: 1 μM, all time points. The method, then:
PVR membranes were divided into pieces and embedded in growth factor reduced Matrigel (354,230; BD Biosciences, San Jose, CA) in a 24-well plate and placed at 37° C. for 30 min for the Matrigel to solidify. The specimens were treated with either vehicle or Rho kinase inhibitors, Netarsudil (60 nM), Ripasudil (300 nM), Fasudil (1 uM), and Y27632 (1 uM) in 500 μl in PVR growth media comprising: • 1) Endothelial base medium (EBM2; Lonza-CC-3156)+ • 2) EGM 2 SingleQuot Kit suppl. & Growth factors (Lonza; CC-4176)+ • 3) 10% fetal bovine serum (Atlanta Biologicals)+ • 4) 1% Penicillin/Streptomycin+1% L-Glutamine • *** The total FBS in the media is 12% (2% from SingleQuot+10% additional) Phase contrast images were taken using an EVOS FL imaging system (Life Technologies) and the distance of growth from the embedded tissue was quantified using Image J (National Institutes of Health). PVR membranes were obtained from human donors with PVR grade C undergoing surgery. Membrane fragments placed on a matrigel mount with PVR cell growth media and treated with Rho-Kinase inhibitors ripasudil (1 μM), netarsudil (1 μM), fasudil (1 μM), Y-27632 (1 μM) and control with no drug.

Data set [5] has as its system C-PVR cells. Nature of the data set: TGF-β2 induced mesenchymal phenotypic change, phase images. The following applies: 1 uM, TGF-β2 10 ng/ml, day 3. Format: cell-based, human. The method, then:
PVR cells were seeded in well plates for a period of 72 hours. Cells were pre-treated with rho-kinase inhibitors: ripasudil, netarsudil, fasudil and […] (1 uM) for 24 hours, then treated with TGF-β2 […], rho-kinase inhibitors (1 uM), and control with no drug, using triplicates for each condition. Changes in phenotype were examined via phase images at day 3.

The test system of data set [6] is PVR explants. Put plainly: Ex vivo model of PVR: outgrowth from PVR membrane explants embedded in Matrigel. Format: cell-based. The following applies: ex vivo cultured explants of PVR tissue from human subjects.
Data set [7] has as its system RhoA. Nature of the data set: RhoA pull down activation assay after TGF-β2 treatment. The data set is classed as cell-based, human. The following applies: C-PVR cells. Here is the method:
C-PVR cells were cultured and seeded in T-25 flasks at 1 million cells per flask. […] Cells were washed with ice-cold PBS and cell lysates were harvested with a cell scraper. Protein concentration of each time point was measured to ensure equal protein concentration. Using freshly prepared cell lysates, equivalent protein amounts (300-500 ug total protein) were added to 30 ul of rhotekin-RBD beads (Cytoskeleton, Denver, CO) for the […] pulldown assay. Pulldown assay supernatants were quantified using western blot analysis. An anti-RhoA primary antibody (Cytoskeleton, Denver, CO) was added and left overnight at 4° C., After primary antibody intubation, HRP labeled secondary antibody was added, following by addition on HRP detection reagent and intubated at room temperature for 5 minutes,
PVR cells cultured in T-25 flasks and treated with TGF-β2 […] at 80% confluence. […]

[8] abbreviates: 7 days post embedding in Matrigel.
Setting [9] is: 14 days post embedding in Matrigel.

For `O=S(=O)(c1cccc2cnccc12)N1CCCNCC1` [fasudil, 1-(5-isoquinolinesulfonyl)-homopiperazine], the “reduction of proliferation in C-PVR cells” value (from here on “reduction of proliferation”) was determined as 24% in data set [1] (0.1 μM (lowest concentration)), 39% in data set [1] (1 μM (lower concentration)) and 20% in data set [1] (10 μM (highest concentration)). The “cell death detected by LDH analysis” value in data set [2] (all concentrations (10-0.1 μM)) is on record as “low levels of cell death”. In data set [3], the “reduction of migration in C-PVR cells” value is 40%. The “explant outgrowths, inhibition of proliferation and migration” value in data set [4] was “no outgrowths and almost complete inhibition of proliferation and migration”. Moreover, the “mesenchymal phenotypic change in TGF-β2 treated C-PVR cells” value (“mesenchymal phenotypic change” for short) in data set [5] is “slightly decreased”. For the same molecule, the “numbers of live cells in the explants” value in data set [6] is reported as “significantly reduced”.

Take `Cc1ccc(C(=O)OCc2ccc([C@@H](CN)C(=O)Nc3ccc4cnccc4c3)cc2)c(C)c1` [netarsudil]: the figures for the “reduction of proliferation” value in data set [1] (0.1 μM (lowest concentration)), in data set [1] (1 μM (lower concentration)) and in data set [1] (10 μM (highest concentration)) were 39%, 37% and 95%, respectively. Besides, the “cell death detected by LDH analysis” value in data set [2] (all concentrations (10-0.1 μM)) is “dose dependent cell death”; in data set [2] (low concentrations (0.1 μM)) it was “Low levels of cell death”. Also, the “reduction of migration in C-PVR cells” value in data set [3] stood at 100%. For the same molecule, the explant outgrowth in data set [4] (setting [8]) is given as 4.2 mm; in data set [4] (setting [9]), 37 mm.

For `C[C@H]1CNCCCN1S(=O)(=O)c1cccc2cncc(F)c12` [ripasudil, 4-fluoro-5-[[(2S)-2-methyl-1,4-diazepan-1-yl]sulfonyl]isoquinoline], the “reduction of proliferation” value in data set [1] (0.1 μM (lowest concentration)) was found to be 21%; in data set [1] (1 μM (lower concentration)) it was 25%; in data set [1] (10 μM (highest concentration)), 44%. The “cell death detected by LDH analysis” value in data set [2] (all concentrations (10-0.1 μM)) is recorded as “dose dependent cell death; also recorded: Low levels of cell death”. In addition, the “reduction of migration in C-PVR cells” value in data set [3] is listed as 65%. For the same molecule, the explant outgrowth in data set [4] (setting [8]) is 0.8 mm; in data set [4] (setting [9]) it was 15 mm. The “mesenchymal phenotypic change” value in data set [5] is given as “slightly decreased”.

Consider `C[C@@H](N)[C@H]1CC[C@H](C(=O)Nc2ccncc2)CC1.Cl.Cl` [Y-27632, (+)-(R)-trans-4-(1-aminoethyl)-N-(4-pyridyl)cyclohexanecarboxamide dihydrochloride], for which the “explant outgrowths, inhibition of proliferation and migration” value in data set [4] (listed as Y-2762, dihydrochloride) is “no outgrowths and almost complete inhibition of proliferation and migration”. In addition, the “mesenchymal phenotypic change” value in data set [5] is on record as “slightly decreased”. Moreover, the “numbers of live cells in the explants” value in data set [6] was “significantly reduced”.

B1: TGF-β2: Recombinant Human TGF-β2 growth factor (PeproTech) used as stimulus of EMT and RhoA activation (protein, UniProt P61812 303-414, looked up)
Transforming growth factor …: ALDAAYCFRNVQDNCCLRPLYIDFKRDLGWKWIHEPKGYNANFCAGACPYLWSSDTQHSRVLSLYNTINPEASASPCCVSQDLEPLTILYYIGKTPKIEQLSNMIVKSCKCS
With B1, the “RhoA activation, increase over control” value worked out at 1.5 in data set [7] (15 minutes after stimulation) and 2 fold in data set [7] (30 minutes after stimulation). For the same molecule, the “RhoA activation versus control” value in data set [7] (60 minutes after stimulation) was “slight decrease over control”.

The record behind these values is patent US20230310446A1, “RHO KINASE INHIBITION FOR TREATMENT OF PROLIFERATIVE VITREORETINOPATHY AND CONDITIONS ASSOCIATED WITH EPITHELIAL TO MESENCHYMAL TRANSITION” (The Schepens Eye Research Institute, Inc., priority 2020, published 2023).
